Experimental findings from PubChem BioAssay AID1259407 (Chemical Carcinogenesis Research Information System (CCRIS), 2018) are described below.

Calls of active or inactive are those of the source. No rule for the calls is given here.

The test system of the data set is CCRIS mutagenicity, Ames/micronucleus/aberration tests. Kind of data set: CCRIS mutagenicity studies. The note with it: Test System: AMES SALMONELLA TYPHIMURIUM, Method: PREINCUBATION

With `COC(=O)Nc1cccc(OC(=O)Nc2cccc(C)c2)c1`, the mutagenic call was “inactive; negative” (Strain/Indicator: TA97, Metabolic Activation: HAMSTER, LIVER, S-9, AROCLOR 1254 (30%)); “inactive; negative” (Strain/Indicator: TA97, Metabolic Activation: NONE); “inactive; negative” (Strain/Indicator: TA97, Metabolic Activation: RAT, LIVER, S-9, AROCLOR 1254 (30%)); “inactive; negative” (Strain/Indicator: TA98, Metabolic Activation: HAMSTER, LIVER, S-9, AROCLOR 1254 (10 OR 30%)); “active; positive” (Strain/Indicator: TA98, Metabolic Activation: HAMSTER, LIVER, S-9, AROCLOR 1254 (30%)); “inactive; negative” (Strain/Indicator: TA98, Metabolic Activation: NONE). Further, the mutagenic call runs as follows: (Strain/Indicator: TA98, Metabolic Activation: RAT, LIVER, S-9, AROCLOR 1254 (30%)) “inactive; negative”; (Strain/Indicator: TA100, Metabolic Activation: HAMSTER, LIVER, S-9, AROCLOR 1254 (30%)) “inactive; negative”; (Strain/Indicator: TA100, Metabolic Activation: NONE) “inactive; negative”; (Strain/Indicator: TA100, Metabolic Activation: RAT, LIVER, S-9, AROCLOR 1254 (30%)) “inactive; negative”; (Strain/Indicator: TA1538, Metabolic Activation: HAMSTER, LIVER, S-9, AROCLOR 1254 (10%)) “inactive; negative”; (Strain/Indicator: TA1538, Metabolic Activation: HAMSTER, LIVER, S-9, AROCLOR 1254 (30%)) “active; positive”. The mutagenic call (Strain/Indicator: TA1538, Metabolic Activation: NONE) was “inactive; negative” and the mutagenic call (Strain/Indicator: TA1538, Metabolic Activation: RAT, LIVER, S-9, AROCLOR 1254 (30%)) was “inactive; negative”.
